Data taken from patent US10745389B2, “HDAC6 selective inhibitors, preparation method therefor, and application thereof” (CSTONE PHARMACEUTICALS (SUZHOU) CO., LTD., priority 2017, dated 2020).

System: human myeloma MM.1S cells subcutaneous xenograft tumor
Assay: In vivo pharmacodynamic study with Ixazomib, MM.1S subcutaneous xenograft in CB-17 SCID model
Design: species or system CB-17 SCID mouse
Conditions: Ixazomib 4 mg/kg administered alone, 21st day
Protocol: The purpose of this experiment was to investigate the in vivo therapeutic effect of the compounds of the present invention in combination with proteasome inhibitor Ixazomib on human myeloma MM.1S cell subcutaneous xenografts in the CB-17 SCID model.
Human myeloma MM. S cells were cultured in vitro in a single layer, culture environment was RPMI-1640 medium (supplier: Gibco; Cat. No. 22400-089) supplemented with 10% fetal bovine serum, 37° C. 5% CO2 incubator. Then passage was done by routinely digested with trypsin-EDTA twice a week. When the cell saturation rate reached 80%-90%, the cells were collected, counted, and inoculated.
0.2 mL of 5×10^6 MM.1S cells were subcutaneously inoculated into the right back of each mouse (Beijing Weitong Lihua Biotechnology Co., Ltd., female, 6-8 weeks old) (PBS: Matrigel=1:1)). Administration by groups was initiated when the average tumor volume reached 100-150 mm^3.
Animals were monitored daily for health and mortality, routine tests includes observations of tumor growth and drug treatment effects on animal performance, such as behavioral activities, food intake (visual inspection only), weight change (measured every other day), appearance signs or other abnormal conditions. The number of animal deaths and side effects in the group were recorded based on the number of animals in each group.
The experimental index is to investigate whether tumor growth is inhibited, delayed or cured. Tumor diameters were measured with vernier calipers three times a week. The tumor volume is calculated by: V=0.5a×b^2, where a and b represent the long and short diameters of the tumor, respectively.
The antitumor effect of the compound was evaluated by TGI (%) or relative tumor growth rate T/C (%). TGI (%), reflecting the tumor growth inhibition rate. […]

SMILES: CC(C)C[C@H](NC(=O)CNC(=O)c1cc(Cl)ccc1Cl)B(O)O [Ixazomib]
- tumor volume: 916 mm^3
- T/C (vs solvent control): 34.97%
- TGI (vs solvent control): 68.65%
